Earlier results as cited in patent publication US7994157B2, “Method for dispersing plant sterol for beverage and a plant sterol-dispersed beverage, of which particle size is nanometer-scale in dispersed beverage” (KIP Biotech LLC, priority 2000, dated 2011).

Test system: serum cholesterol level
Settings: applied form in an oil phase (margarine); U.S. Pat. No. 5,502,045

Substance: sitostanol fatty acid ester
- reduction of the LDL-C level: ≤ 16%
